This passage reports IC50, water solubility and therapeutic index results from patent publication US7816346B2, “Analogs of ansamycin and pharmaceutical compositions thereof” (priority 2006, dated 2010).

In data set [1] the test system is MX-1 (human breast carcinoma) cells. In words: in vitro growth inhibition, cytotoxicity assay (Promega CellTiter Blue Cell Viability Assay). As to conditions: read-out: IC50, μM MX-1. The data set is classed as cell-based. As to the method:
After 24 hrs., cells were exposed to various concentrations of compound in DMSO and cultured for another 72 hrs. 100 ul of media were removed and 20 ul of Promega CellTiter Blue reagent were added to each well and shaken to mix. […] The fluorescence produced is proportional to the number of viable cells. After plotting fluorescence produced against drug concentration, the IC50 was calculated as the […] of the resulting non-linear regression.
A general note: Alamar Blue is a resazurin reagent that responds to reducing activity.

The conditions of data set [2]: cited from earlier work.
A further data set has as its system cellular growth. As to conditions: read-out: concentration that inhibited cellular growth 50% in comparison with untreated controls; cited from earlier work.
Another data set relates to HSV-1. As to conditions: cited from earlier work.
The mark [3] stands for this setting: MX-1 cells, 72 hrs exposure, CellTiter Blue.

Where two headings read alike, the source gives them in different places.

For the compound “18-N-Lauramide-21-hydroxylgeldanamycin [Compound 2]”, the IC50 in data set [1] (setting [3]) was found to be 1.3 µM.

Regarding `C=CCNC1=C2C[C@@H](C)C[C@H](OC)[C@H](O)[C@@H](C)/C=C(\C)[C@H](OC(N)=O)[C@@H](OC)/C=C\C=C(/C)C(=O)NC(=CC1=O)C2=O` [Compound 17-AAG, 17-allylaminogeldanamycin, reference compound], the IC50 in data set [1] (Homo sapiens, MX1, 72 h) amounted to 1.7 µM. The water solubility entry in data set [2] is recorded as “limited aqueous solubility”.

“18-N-(3,4-Dichloro)benzamide-21-methoxylgeldanamycin [Compound 70]”: the IC50 in data set [1] (setting [3]) amounted to 12.4 µM.

On to `COC1=C2C[C@@H](C)C[C@H](OC)[C@H](O)[C@@H](C)/C=C(\C)[C@H](OC(N)=O)[C@@H](OC)/C=C\C=C(/C)C(=O)NC(=CC1=O)C2=O` [GA, Geldanamycin], for which the IC50 in the data set on cellular growth was 350000 nM; in data set [1] (Homo sapiens, MX1, MX-1 cells, 72 hrs exposure, CellTiter Blue), 0.5 µM; in the data set with HSV-1 (in vitro, read-out: 50% inhibitory concentration, HSV-1 replication in vitro), 93 nM. Besides, the water solubility entry in data set [2] is recorded as “poor water solubility”. In addition, the therapeutic index result in the data set on HSV-1 (cellular growth vs HSV-1 replication) is on record as “over 3700”.

In the case of “18-N-(2-Trifluoro)benzamide-21-hydroxylgeldanamycin [Compound 4]”, the IC50 in data set [1] (setting [3]) is 0.68 µM.

In the case of “18-N-(4-Cyano)benzamide-21-hydroxylgeldanamycin [Compound 7]”, in data set [1] (setting [3]), the IC50 stood at 0.13 µM.

Turning to “18-N-iso-Nicotinamide-21-hydroxylgeldanamycin [Compound 11]”, the IC50 in data set [1] (setting [3]) is 0.1 µM.

For the compound “18-N-Benzylcarbamate-21-hydroxylgeldanamycin [Compound 16]”, the IC50 in data set [1] (setting [3]) was determined as 0.088 µM.

As for `C=CC(=O)Nc1cc2c(O)c(c1OC)CC(C)CC(OC)C(O)C(C)C=C(C)C(OC(N)=O)C(OC)C=CC=C(C)C(=O)N2` (centres unmarked) [Compound 12, 18-N-Acrylamide-21-hydroxylgeldanamycin], in data set [1] (setting [3]), the IC50 worked out at 15.3 µM.

Consider “18-N-Benzamide-21-hydroxylgeldanamycin [Compound 1]”, for which the IC50 in data set [1] (setting [3]) was determined as 1.9 µM.

Turning to “18-N-Benzylurea-21-hydroxylgeldanamycin [Compound 49]”, the IC50 in data set [1] (setting [3]) was 2.4 µM.

Turning to “18-N-(4-Nitro)benzamide-21-hydroxylgeldanamycin [Compound 3]”, the IC50 in data set [1] (setting [3]) stood at 0.42 µM.

Turning to “18-N-(4-Methoxy)benzamide-21-hydroxylgeldanamycin [Compound 5]”, the IC50 in data set [1] (setting [3]) came to 0.29 µM.

As for `COc1c(NS(=O)(=O)c2ccc(C(F)(F)F)cc2)cc2c(O)c1CC(C)CC(OC)C(O)C(C)C=C(C)C(OC(N)=O)C(OC)C=CC=C(C)C(=O)N2` (centres unmarked) [Compound 29, 18-N-(4-trifluoromethylbenzene)sulfamide-21-hydroxylgeldanamycin], the IC50 in data set [1] (setting [3]) came out at 0.078 µM.

As for “18-N-(4-Phenyl)benzamide-21-hydroxylgeldanamycin [Compound 6]”, the IC50 in data set [1] (setting [3]) is 0.081 µM.

“18-N-(2-Furo)amide-21-hydroxylgeldanamycin [Compound 10]”: the IC50 in data set [1] (setting [3]) stood at 7.2 µM.

On to “18-N-(3,4-Dichloro)benzamide-21-hydroxylgeldanamycin [Compound 9]”, for which the IC50 in data set [1] (setting [3]) was 0.8 µM.

Consider “18-N-(4-Fluoro)benzamide-21-hydroxylgeldanamycin [Compound 8]”, for which, in data set [1] (setting [3]), the IC50 came to 2 µM.
